Columns and labels:
[1] = target: GDP-bound NRAS wild-type protein (Homo sapiens, UniProt P01111); assay: Binding to NRAS by surface plasmon resonance (SPR), Single Cycle Kinetics; details: KD ratio, GDP-bound NRAS wild-type vs GDP-bound KRAS wild-type, SPR
[2] = target: GDP-bound HRAS wild-type protein (Homo sapiens, UniProt P01112); assay: Binding to HRAS by surface plasmon resonance (SPR), Single Cycle Kinetics; details: KD ratio, GDP-bound HRAS wild-type vs GDP-bound KRAS wild-type, SPR
GDP-bound HRAS wild-type protein, sequence (P01112 whole entry): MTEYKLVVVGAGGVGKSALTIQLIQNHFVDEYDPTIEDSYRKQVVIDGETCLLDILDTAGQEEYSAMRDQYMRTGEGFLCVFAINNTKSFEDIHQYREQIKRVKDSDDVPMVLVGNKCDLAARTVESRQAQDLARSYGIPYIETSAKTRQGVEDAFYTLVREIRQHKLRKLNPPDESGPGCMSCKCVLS

GDP-bound NRAS wild-type protein, sequence (P01111 whole entry): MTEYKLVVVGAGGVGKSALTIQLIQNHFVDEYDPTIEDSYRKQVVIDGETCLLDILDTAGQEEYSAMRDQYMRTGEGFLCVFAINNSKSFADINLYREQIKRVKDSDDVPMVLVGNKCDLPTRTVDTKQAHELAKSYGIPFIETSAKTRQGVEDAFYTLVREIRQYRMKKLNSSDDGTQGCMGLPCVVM

Row | Compound | NRAS/KRAS (ratio of KD value with respect to NRAS to KD value with respect to KRAS) [1] | HRAS/KRAS (ratio of KD value with respect to HRAS to KD value with respect to KRAS) [2]
1 | CCO[C@@H]1C[C@H]2C(=O)NC3(CCC3)C(=O)N(C)[C@@H](C3CCCC3)C(=O)N(C)[C@H](C(=O)N(C)C)CC(=O)N(C)[C@@H](CC(C)C)C(=O)N[C@@H]([C@@H](C)CC)C(=O)N3CC[C@H]3C(=O)N(C)[C@H]3CC(C)=CCN(C3=O)[C@@H](Cc3ccc(C(F)(F)F)cc3)C(=O)N(C)CC(=O)N[C@@H](CCc3cc(F)c(C(F)(F)F)c(F)c3)C(=O)N2C1 [PP1033] | C (A compound having a KD ratio of 0.1 or more and less than 3 is denoted as C) | C (A compound having a KD ratio of 0.1 or more and less than 3 is denoted as C)
2 | CCO[C@@H]1C[C@H]2C(=O)NC3(CCC3)C(=O)N(C)[C@@H](C3CCCC3)C(=O)N(C)[C@H](C(=O)N(C)C)CC(=O)N(C)[C@@H](CC)C(=O)N[C@@H]([C@@H](C)CC)C(=O)N(C)CC(=O)N(C)[C@H]3CC(C)=CCN(C3=O)[C@@H](Cc3ccc(C(F)(F)F)cc3)C(=O)N(C)CC(=O)N[C@@H](CCc3cc(F)c(C(F)(F)F)c(F)c3)C(=O)N2C1 [PP1034] | C (A compound having a KD ratio of 0.1 or more and less than 3 is denoted as C) | C (A compound having a KD ratio of 0.1 or more and less than 3 is denoted as C)
3 | CCO[C@@H]1C[C@H]2C(=O)NC3(CCC3)C(=O)N(C)[C@@H](C3CCCC3)C(=O)N(C)[C@H](C(=O)N(C)C)CC(=O)N(C)[C@@H](CC)C(=O)N[C@@H]([C@@H](C)CC)C(=O)N3CC[C@H]3C(=O)N(C)[C@H]3CC(C)=CCN(C3=O)[C@@H](Cc3ccc(C(F)(F)F)cc3)C(=O)N(C)CC(=O)N[C@@H](CCc3cc(F)c(C(F)(F)F)c(F)c3)C(=O)N2C1 [PP1035] | C (A compound having a KD ratio of 0.1 or more and less than 3 is denoted as C) | C (A compound having a KD ratio of 0.1 or more and less than 3 is denoted as C)
4 | CCO[C@@H]1C[C@H]2C(=O)NC3(CCCC3)C(=O)N(C)[C@@H](C3CCCC3)C(=O)N(C)[C@H](C(=O)N(C)C)CC(=O)N(C)[C@@H](CC)C(=O)N[C@@H]([C@@H](C)CC)C(=O)N(C)CC(=O)N(C)[C@H]3CC(C)=CCN(C3=O)[C@@H](Cc3ccc(C(F)(F)F)cc3)C(=O)N(C)CC(=O)N[C@@H](CCc3cc(F)c(C(F)(F)F)c(F)c3)C(=O)N2C1 [PP1036] | C (A compound having a KD ratio of 0.1 or more and less than 3 is denoted as C) | C (A compound having a KD ratio of 0.1 or more and less than 3 is denoted as C)
5 | CCO[C@@H]1C[C@H]2C(=O)NC3(CCC3)C(=O)N(C)[C@@H](C3CCCC3)C(=O)N(C)[C@H](C(=O)N(C)C)CC(=O)N(CC)[C@@H](CC(C)C)C(=O)N[C@@H]([C@@H](C)CC)C(=O)N(C)CC(=O)N(C)[C@H]3CC(C)=CCN(C3=O)[C@@H](Cc3ccc(C(F)(F)F)cc3)C(=O)N(C)CC(=O)N[C@@H](CCc3cc(F)c(C(F)(F)F)c(F)c3)C(=O)N2C1 [PP1037] | C (A compound having a KD ratio of 0.1 or more and less than 3 is denoted as C) | C (A compound having a KD ratio of 0.1 or more and less than 3 is denoted as C)
6 | CCO[C@@H]1C[C@H]2C(=O)NC3(CCCC3)C(=O)N(C)[C@@H](C3CCCC3)C(=O)N(C)[C@H](C(=O)N3CCOCC3)CC(=O)N(C)[C@@H](CC(C)C)C(=O)N[C@@H]([C@@H](C)CC)C(=O)N(C)CC(=O)N(C)[C@H]3CC(C)=CCN(C3=O)[C@@H](Cc3ccc(C(F)(F)F)cc3)C(=O)N(C)CC(=O)N[C@@H](CCc3cc(F)c(C(F)(F)F)c(F)c3)C(=O)N2C1 [PP1038] | C (A compound having a KD ratio of 0.1 or more and less than 3 is denoted as C) | C (A compound having a KD ratio of 0.1 or more and less than 3 is denoted as C)
7 | CCO[C@@H]1C[C@H]2C(=O)NC3(CCC3)C(=O)N(C)[C@@H](C3CCCC3)C(=O)N(C)[C@H](C(=O)N3CCOCC3)CC(=O)N(C)[C@@H](CC(C)C)C(=O)N[C@@H]([C@@H](C)CC)C(=O)N(C)CC(=O)N(C)[C@H]3CC(C)=CCN(C3=O)[C@@H](Cc3ccc(C(F)(F)F)cc3)C(=O)N(C)CC(=O)N[C@@H](CCc3cc(F)c(C(F)(F)F)c(F)c3)C(=O)N2C1 [PP1039] | C (A compound having a KD ratio of 0.1 or more and less than 3 is denoted as C) | C (A compound having a KD ratio of 0.1 or more and less than 3 is denoted as C)
8 | CCO[C@@H]1C[C@H]2C(=O)NC3(CCC3)C(=O)N(C)[C@@H](C3CCCC3)C(=O)N(C)[C@H](C(=O)N3CCOCC3)CC(=O)N(C)[C@@H](CC(C)C)C(=O)N[C@@H]([C@@H](C)CC)C(=O)N3CC[C@H]3C(=O)N(C)[C@H]3CC(C)=CCN(C3=O)[C@@H](Cc3ccc(C(F)(F)F)cc3)C(=O)N(C)CC(=O)N[C@@H](CCc3cc(F)c(C(F)(F)F)c(F)c3)C(=O)N2C1 [PP1040] | C (A compound having a KD ratio of 0.1 or more and less than 3 is denoted as C) | C (A compound having a KD ratio of 0.1 or more and less than 3 is denoted as C)
9 | CCO[C@@H]1C[C@H]2C(=O)NC3(CCC3)C(=O)N(C)[C@@H](C3CCCC3)C(=O)N(C)[C@H](C(=O)N3CCOCC3)CC(=O)N(C)[C@@H](CC)C(=O)N[C@@H]([C@@H](C)CC)C(=O)N(C)CC(=O)N(C)[C@H]3CC(C)=CCN(C3=O)[C@@H](Cc3ccc(C(F)(F)F)cc3)C(=O)N(C)CC(=O)N[C@@H](CCc3cc(F)c(C(F)(F)F)c(F)c3)C(=O)N2C1 [PP1041] | C (A compound having a KD ratio of 0.1 or more and less than 3 is denoted as C) | C (A compound having a KD ratio of 0.1 or more and less than 3 is denoted as C)
10 | CCO[C@@H]1C[C@H]2C(=O)NC3(CCC3)C(=O)N(C)[C@@H](C3CCCC3)C(=O)N(C)[C@H](C(=O)N3CCOCC3)CC(=O)N(C)[C@@H](CC)C(=O)N[C@@H]([C@@H](C)CC)C(=O)N3CC[C@H]3C(=O)N(C)[C@H]3CC(C)=CCN(C3=O)[C@@H](Cc3ccc(C(F)(F)F)cc3)C(=O)N(C)CC(=O)N[C@@H](CCc3cc(F)c(C(F)(F)F)c(F)c3)C(=O)N2C1 [PP1042] | C (A compound having a KD ratio of 0.1 or more and less than 3 is denoted as C) | C (A compound having a KD ratio of 0.1 or more and less than 3 is denoted as C)
11 | CCO[C@@H]1C[C@H]2C(=O)NC3(CCCC3)C(=O)N(C)[C@@H](C3CCCC3)C(=O)N(C)[C@H](C(=O)N3CCOCC3)CC(=O)N(C)[C@@H](CC)C(=O)N[C@@H]([C@@H](C)CC)C(=O)N(C)CC(=O)N(C)[C@H]3CC(C)=CCN(C3=O)[C@@H](Cc3ccc(C(F)(F)F)cc3)C(=O)N(C)CC(=O)N[C@@H](CCc3cc(F)c(C(F)(F)F)c(F)c3)C(=O)N2C1 [PP1043] | C (A compound having a KD ratio of 0.1 or more and less than 3 is denoted as C) | C (A compound having a KD ratio of 0.1 or more and less than 3 is denoted as C)
12 | CCO[C@@H]1C[C@H]2C(=O)NC3(CCC3)C(=O)N(C)[C@@H](C3CCCC3)C(=O)N(C)[C@H](C(=O)N3CCOCC3)CC(=O)N(CC)[C@@H](CC(C)C)C(=O)N[C@@H]([C@@H](C)CC)C(=O)N(C)CC(=O)N(C)[C@H]3CC(C)=CCN(C3=O)[C@@H](Cc3ccc(C(F)(F)F)cc3)C(=O)N(C)CC(=O)N[C@@H](CCc3cc(F)c(C(F)(F)F)c(F)c3)C(=O)N2C1 [PP1044] | C (A compound having a KD ratio of 0.1 or more and less than 3 is denoted as C) | C (A compound having a KD ratio of 0.1 or more and less than 3 is denoted as C)
13 | CCO[C@@H]1C[C@H]2C(=O)NC3(CCCC3)C(=O)N(C)[C@@H](C3CCCC3)C(=O)N(C)[C@H](C(=O)N(C)C)CC(=O)N(C)[C@@H](CC(C)C)C(=O)N[C@@H]([C@@H](C)CC)C(=O)N(C)CC(=O)N(C)[C@H]3CC(C)=C(C)CN(C3=O)[C@@H](Cc3ccc(C(F)(F)F)cc3)C(=O)N(C)CC(=O)N[C@@H](CCc3cc(F)c(C(F)(F)F)c(F)c3)C(=O)N2C1 [PP1045] | C (A compound having a KD ratio of 0.1 or more and less than 3 is denoted as C) | C (A compound having a KD ratio of 0.1 or more and less than 3 is denoted as C)
14 | CCO[C@@H]1C[C@H]2C(=O)NC3(CCC3)C(=O)N(C)[C@@H](C3CCCC3)C(=O)N(C)[C@H](C(=O)N(C)C)CC(=O)N(C)[C@@H](CC(C)C)C(=O)N[C@@H]([C@@H](C)CC)C(=O)N3CC[C@H]3C(=O)N(C)[C@H]3CC(C)=C(C)CN(C3=O)[C@@H](Cc3ccc(C(F)(F)F)cc3)C(=O)N(C)CC(=O)N[C@@H](CCc3cc(F)c(C(F)(F)F)c(F)c3)C(=O)N2C1 [PP1047] | C (A compound having a KD ratio of 0.1 or more and less than 3 is denoted as C) | C (A compound having a KD ratio of 0.1 or more and less than 3 is denoted as C)
15 | CCO[C@@H]1C[C@H]2C(=O)NC3(CCC3)C(=O)N(C)[C@@H](C3CCCC3)C(=O)N(C)[C@H](C(=O)N(C)C)CC(=O)N(C)[C@@H](CC)C(=O)N[C@@H]([C@@H](C)CC)C(=O)N(C)CC(=O)N(C)[C@H]3CC(C)=C(C)CN(C3=O)[C@@H](Cc3ccc(C(F)(F)F)cc3)C(=O)N(C)CC(=O)N[C@@H](CCc3cc(F)c(C(F)(F)F)c(F)c3)C(=O)N2C1 [PP1048] | C (A compound having a KD ratio of 0.1 or more and less than 3 is denoted as C) | C (A compound having a KD ratio of 0.1 or more and less than 3 is denoted as C)

Reference: patent US20250230193A1, “CYCLIC COMPOUND HAVING SELECTIVE KRAS INHIBITORY EFFECT ON HRAS AND NRAS” (CHUGAI SEIYAKU KABUSHIKI KAISHA, priority 2022, published 2025)
